Patent US10689327B2, “Prodrug amino acid derivative” (TAISHO PHARMACEUTICALS CO., LTD., priority 2016, dated 2020)
Structures can show the parent of a compound that is named as a salt.

Assay: Stability test in solution (pH 1.2 and pH 6.5)
Format: physicochemical
Settings: 1 hour; for Compound's percent residue (%) pH 6.5: 20 mM phosphate buffer pH 6.5, 37° C.; for Compound's percent residue (%) pH 1.2: hydrochloric acid solution pH 1.2, 37° C.
Protocol: Test 2: Stability Test in Solution
A test to determine the stability of Inventive Compounds (I-A) or (I) in a hydrochloric acid solution (pH 1.2) and 20 mM phosphate buffer (pH 6.5) was conducted in accordance with the following method.
A compound was dissolved in a hydrochloric acid solution (pH 1.2) containing hydrochloric acid and sodium chloride or a 20 mM phosphate buffer (pH 6.5) containing disodium hydrogenphosphate, sodium dihydrogenphosphate and sodium chloride to prepare a solution with a concentration of about 50 ng/mL (near the saturated concentration when the compound was not dissolved). The solution was incubated at 37° C. for 1 hour and the compound's concentration before and after the incubation was quantified by high-performance liquid chromatography to calculate the percent residue of the compound. Compounds having low solubility were assessed as being not applicable.
The percent residues of representative compounds in the hydrochloric acid solution (pH 1.2) and the 20 mM phosphate buffer (pH 6.5) are shown in the following Table 2.

Row | Structure (SMILES) | Compound's percent residue (%) pH 6.5 [%] | Compound's percent residue (%) pH 1.2 [%]
1 | CC(C)[C@@H]1CC[C@@H](C)C[C@H]1OC(=O)O[C@@H](C)OC(=O)[C@@]1(N)[C@H]2[C@@H](C[C@H]1OCc1ccc(F)cc1)[C@]2(F)C(=O)O [Example 2, (1R,2R,3R,5R,6R)-2-Amino-6-fluoro-3-[(4-fluorophenyl)methoxy]-2-({(1S)-1-[({[(1R,2S,5R)-5-methyl-2-(propan-2-yl)cyclohexyl]oxy}carbonyl)oxy]ethoxy}carbonyl)bicyclo[3.1.0]hexane-6-carboxylic acid] | 104 | 
2 | C[C@H](OC(=O)C12CC3CC(CC(C3)C1)C2)OC(=O)[C@@]1(N)[C@H]2[C@@H](C[C@H]1OCc1ccc(F)cc1)[C@]2(F)C(=O)O [Example 3, (1R,2R,3R,5R,6R)-2-Amino-6-fluoro-3-[(4-fluorophenyl)methoxy]-2-({(1R)-1-[(tricyclo[3.3.1.1^3,7]decane-1-carbonyl)oxy]ethoxy}carbonyl)bicyclo[3.1.0]hexane-6-carboxylic acid] |  | 93
3 | N[C@]1(C(=O)OCOC(=O)C23CC4CC(CC(C4)C2)C3)[C@H]2[C@@H](C[C@H]1OCc1ccc(F)cc1)[C@]2(F)C(=O)O [Example 7, (1R,2R,3R,5R,6R)-2-Amino-6-fluoro-3-[(4-fluorophenyl)methoxy]-2-({[(tricyclo[3.3.1.1^3,7]decane-1-carbonyl)oxy]methoxy}carbonyl)bicyclo[3.1.0]hexane-6-carboxylic acid] | 106 | 101
4 | CC(C)[C@@H]1CC[C@@H](C)C[C@H]1OC(=O)O[C@H](C)OC(=O)[C@@]1(N)[C@H]2[C@@H](C[C@H]1OCc1ccc(F)c(F)c1)[C@]2(F)C(=O)O [Example 8, (1R,2R,3R,5R,6R)-2-amino-3-[(3,4-difluorophenyl)methoxy]-6-fluoro-2-({(1R)-1-[({[(1R,2S,5R)-5-methyl-2-(propan-2-yl)cyclohexyl]oxy}carbonyl)oxy]ethoxy}carbonyl)bicyclo[3.1.0]hexane-6-carboxylic acid] |  | 97
5 | CC(C)[C@@H]1CC[C@@H](C)C[C@H]1OC(=O)O[C@@H](C)OC(=O)[C@@]1(N)[C@H]2[C@@H](C[C@H]1OCc1ccc(F)c(F)c1)[C@]2(F)C(=O)O [Example 9, (1R,2R,3R,5R,6R)-2-Amino-3-[(3,4-difluorophenyl)methoxy]-6-fluoro-2-({(1S)-1-[({[(1R,2S,5R)-5-methyl-2-(propan-2-yl)cyclohexyl]oxy}carbonyl)oxy]ethoxy}carbonyl)bicyclo[3.1.0]hexane-6-carboxylic acid] | 116 | 115
6 | C[C@H](OC(=O)C12CC3CC(CC(C3)C1)C2)OC(=O)[C@@]1(N)[C@H]2[C@@H](C[C@H]1OCc1ccc(F)c(F)c1)[C@]2(F)C(=O)O [Example 10, (1R,2R,3R,5R,6R)-2-Amino-3-[(3,4-difluorophenyl)methoxy]-6-fluoro-2-({(1R)-1-[(tricyclo[3.3.1.1^3,7]decane-1-carbonyl)oxy]ethoxy}carbonyl)bicyclo[3.1.0]hexane-6-carboxylic acid] | 107 | 104
7 | C[C@@H](OC(=O)C12CC3CC(CC(C3)C1)C2)OC(=O)[C@@]1(N)[C@H]2[C@@H](C[C@H]1OCc1ccc(F)c(F)c1)[C@]2(F)C(=O)O [Example 11, (1R,2R,3R,5R,6R)-2-Amino-3-[(3,4-difluorophenyl)methoxy]-6-fluoro-2-({(1S)-1-[(tricyclo[3.3.1.1^3,7]decane-1-carbonyl)oxy]ethoxy}carbonyl)bicyclo[3.1.0]hexane-6-carboxylic acid] | 95 | 96

The next lines start with the values.

Row | Compound's percent residue (%) pH 6.5 [%] | Compound's percent residue (%) pH 1.2 [%] | Structure (SMILES)
8 | 103 | 100 | CCCO[C@@H]1C[C@@H]2[C@H]([C@]1(N)C(=O)OC(C)OC(=O)O[C@H]1C[C@@H](C)CC[C@@H]1C(C)C)[C@@]2(F)C(=O)O (single isomer, unassigned) [Example 15-B]
9 | 97 | 104 | CC(OC(=O)O[C@@H]1C[C@@H]2CC[C@@]1(C)C2(C)C)OC(=O)[C@@]1(N)[C@H]2[C@@H](C[C@H]1OCc1ccc(F)cc1)[C@]2(F)C(=O)O (single isomer, unassigned) [Example 17-A]
10 | 103 | 107 | CCCO[C@@H]1C[C@@H]2[C@H]([C@]1(N)C(=O)OC(C)OC(=O)O[C@@H]1C[C@@H]3CC[C@@]1(C)C3(C)C)[C@@]2(F)C(=O)O (single isomer, unassigned) [Example 18-A]
11 | 106 | 100 | CC(OC(=O)O[C@H]1C[C@H]2CC[C@]1(C)C2(C)C)OC(=O)[C@@]1(N)[C@H]2[C@@H](C[C@H]1OCc1ccc(F)cc1)[C@]2(F)C(=O)O (single isomer, unassigned) [Example 19-B]
12 | 103 | 109 | CC(C)[C@@H]1CC[C@@H](C)C[C@H]1OC(=O)O[C@H](C)OC(=O)[C@@]1(N)[C@H]2[C@@H](C[C@H]1OCc1ccc(F)cc1)[C@]2(F)C(=O)O [Example 1, (1R,2R,3R,5R,6R)-2-amino-6-fluoro-3-[(4-fluorophenyl)methoxy]-2-({(1R)-1-[({[(1R,2S,5R)-5-methyl-2-(propan-2-yl)cyclohexyl]oxy}carbonyl)oxy]ethoxy}carbonyl)bicyclo[3.1.0]hexane-6-carboxylic acid]
13 | 98 | 98 | C[C@@H](OC(=O)C12CC3CC(CC(C3)C1)C2)OC(=O)[C@@]1(N)[C@H]2[C@@H](C[C@H]1OCc1ccc(F)cc1)[C@]2(F)C(=O)O [Example 4, (1R,2R,3R,5R,6R)-2-Amino-6-fluoro-3-[(4-fluorophenyl)methoxy]-2-({(1S)-1-[(tricyclo[3.3.1.1^3,7]decane-1-carbonyl)oxy]ethoxy}carbonyl)bicyclo[3.1.0]hexane-6-carboxylic acid]
14 | 98 | 100 | CC(OC(=O)OC1CCCCC1)OC(=O)[C@@]1(N)[C@H]2[C@@H](C[C@H]1OCc1ccc(F)cc1)[C@]2(F)C(=O)O (stereo partly drawn) [Example 5, (1R,2R,3R,5R,6R)-2-Amino-2-[(1-{[(cyclohexyloxy)carbonyl]oxy}ethoxy)carbonyl]-6-fluoro-3-[(4-fluorophenyl)methoxy]bicyclo[3.1.0]hexane-6-carboxylic acid]
15 | 11 | 99 | CC(C)[C@H](N)C(=O)OCOC(=O)[C@@]1(N)[C@H]2[C@@H](C[C@H]1OCc1ccc(F)cc1)[C@]2(F)C(=O)O [Example 6, (1R,2R,3R,5R,6R)-2-Amino-6-fluoro-3-[(4-fluorophenyl)methoxy]-2-{[(L-valyloxy)methoxy]carbonyl}bicyclo[3.1.0]hexane-6-carboxylic acid dihydrochloride]
16 | 102 | 101 | N[C@]1(C(=O)OCOC(=O)C23CC4CC(CC(C4)C2)C3)[C@H]2[C@@H](C[C@H]1OCc1ccc(F)c(F)c1)[C@]2(F)C(=O)O [Example 12, (1R,2R,3R,5R,6R)-2-Amino-3-[(3,4-difluorophenyl)methoxy]-6-fluoro-2-({[(tricyclo[3.3.1.1^3,7]decane-1-carbonyl)oxy]methoxy}carbonyl)bicyclo[3.1.0]hexane-6-carboxylic acid]
